Laboratory results: patent publication US20240156847A1 (priority 2022, published 2024)

Key:
PRV-GFP strain = assay type: cell-based, Pseudorabies virus
[1] = test system: PRV gE protein (PRV-HeNLH/2017 strain); assay type: cell-based, Pseudorabies virus
PRV-HeNLH/2017 strain = assay type: cell-based, Pseudorabies virus

Structure (SMILES): O=C(O)[C@H]1O[C@@H](Oc2cc3oc(-c4ccccc4)cc(=O)c3c(O)c2O)[C@H](O)[C@@H](O)[C@@H]1O [baicalin]
- inhibition of proliferation of PRV-GFP strain (green fluorescence) (PRV-GFP strain): inhibited the proliferation of PRV-GFP strains at the using concentrations, and the inhibitory effect was more significant at 62.5 and 125 μM
- inhibition of expression of PRV gE protein [1]: significantly inhibited the expression of PRV gE protein
- inhibition of PRV proliferation (virus titer, TCID50) (PRV-HeNLH/2017 strain): significantly inhibited the proliferation of PRV on PK-15 cells
- effect on cell viability (cytotoxicity) (PK-15 cells): no significant effect on cell viability
